The target in assay [1] is T1, human AXL cytoplasmic domain (Homo sapiens, UniProt P30530).
T1 construct: human AXL cytoplasmic domain (Thermo Fisher A31515); purchased Thermo Fisher A31515
T1 sequence (P30530 473-894 limits assumed): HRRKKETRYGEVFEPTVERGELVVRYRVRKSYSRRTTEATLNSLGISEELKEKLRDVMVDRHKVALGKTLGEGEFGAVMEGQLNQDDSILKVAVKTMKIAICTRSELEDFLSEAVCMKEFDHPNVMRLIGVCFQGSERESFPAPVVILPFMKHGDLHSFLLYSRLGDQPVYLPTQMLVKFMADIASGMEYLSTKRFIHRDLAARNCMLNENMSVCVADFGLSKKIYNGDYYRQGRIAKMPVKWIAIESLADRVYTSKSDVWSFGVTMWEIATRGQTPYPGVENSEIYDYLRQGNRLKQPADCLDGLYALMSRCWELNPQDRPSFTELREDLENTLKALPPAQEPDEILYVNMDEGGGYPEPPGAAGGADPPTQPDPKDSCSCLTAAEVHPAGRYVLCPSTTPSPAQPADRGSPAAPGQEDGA
Nature of the assay: Assay 1b AXL HTRF KinEASE-TK assay. Format: biochemical. The method in brief: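 Recombinant cytoplasmic domain (5 nM) in kinase buffer with 5 mM MgCl2, 1 mM MnCl2, 1 mM DTT, 50 nM SEB plus test compounds; reaction 30 min at room temperature. EDTA-containing detection with TK antibody-cryptate/streptavidin-XL665 for 60 min; HTRF 665/620 ratio read. IC50 from 4-parameter logistic fit with variable slope.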

For assay [2], the target named is T2, recombinant human AXL expressed in live cells (HEK, AXL-Nanoluc fusion vector) (Homo sapiens, UniProt P30530).
T2 construct: host or cells: HEK
T2 sequence (P30530 26-894): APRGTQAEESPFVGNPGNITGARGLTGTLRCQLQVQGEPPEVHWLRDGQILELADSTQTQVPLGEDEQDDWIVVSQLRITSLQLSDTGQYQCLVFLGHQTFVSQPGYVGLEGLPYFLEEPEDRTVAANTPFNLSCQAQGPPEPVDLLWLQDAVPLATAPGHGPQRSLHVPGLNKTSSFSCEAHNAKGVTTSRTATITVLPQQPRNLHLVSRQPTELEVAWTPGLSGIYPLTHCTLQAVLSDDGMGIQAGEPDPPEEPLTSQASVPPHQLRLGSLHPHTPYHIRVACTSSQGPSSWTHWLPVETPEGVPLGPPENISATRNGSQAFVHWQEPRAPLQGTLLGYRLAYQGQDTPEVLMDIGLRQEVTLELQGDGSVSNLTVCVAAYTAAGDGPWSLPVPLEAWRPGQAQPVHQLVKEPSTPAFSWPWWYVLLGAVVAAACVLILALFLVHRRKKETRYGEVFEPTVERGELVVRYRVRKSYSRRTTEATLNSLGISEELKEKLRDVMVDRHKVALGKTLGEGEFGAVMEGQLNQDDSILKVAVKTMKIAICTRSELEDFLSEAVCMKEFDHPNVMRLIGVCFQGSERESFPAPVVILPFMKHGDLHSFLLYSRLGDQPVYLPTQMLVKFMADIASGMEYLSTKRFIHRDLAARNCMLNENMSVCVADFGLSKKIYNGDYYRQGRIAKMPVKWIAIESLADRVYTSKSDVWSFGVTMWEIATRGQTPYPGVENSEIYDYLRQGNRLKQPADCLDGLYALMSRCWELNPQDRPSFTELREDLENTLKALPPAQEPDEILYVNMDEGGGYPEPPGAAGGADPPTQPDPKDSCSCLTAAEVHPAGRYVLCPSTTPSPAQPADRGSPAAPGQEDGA
The assay is described as follows: Assay 3 AXL cellular target engagement (NanoBRET TE) assay. It counts as cell-based. As for the experimental part: Assay 3—AXL Cellular Target Engagement (TE) Assay
Compound affinities for recombinant human AXL expressed in live cells were assessed via the Promega NanoBRET TE assay technology. Human Embryonic Kidney (HEK) cells were transiently transfected with the AXL-Nanoluc fusion vector (Promega Cat NV1071) using Fugene HD reagent (Promega E2311). […] Incubations were conducted for 2 h at 37° C., after which 20 μl NanoGlo substrate/inhibitor mix (Promega N2161) was added to each well for 2-3 min. The plate was then read on a BMG Pherastar FSX using a NanoBRET filter to record donor emission at 450 nm and acceptor fluorophore emission at 610 nm. From this the BRET ratio (acceptor 610 nm/donor 450 nm) for each data point was calculated.
(Bioluminescence resonance energy transfer reports proximity on the nanometre scale.)

Assay [3] has as its target T3, recombinant human MERTK expressed in live cells (HEK 293, MERTK-Nanoluc fusion vector) (Homo sapiens, UniProt Q12866).
T3 construct: host or cells: HEK 293
T3 sequence (Q12866 21-999): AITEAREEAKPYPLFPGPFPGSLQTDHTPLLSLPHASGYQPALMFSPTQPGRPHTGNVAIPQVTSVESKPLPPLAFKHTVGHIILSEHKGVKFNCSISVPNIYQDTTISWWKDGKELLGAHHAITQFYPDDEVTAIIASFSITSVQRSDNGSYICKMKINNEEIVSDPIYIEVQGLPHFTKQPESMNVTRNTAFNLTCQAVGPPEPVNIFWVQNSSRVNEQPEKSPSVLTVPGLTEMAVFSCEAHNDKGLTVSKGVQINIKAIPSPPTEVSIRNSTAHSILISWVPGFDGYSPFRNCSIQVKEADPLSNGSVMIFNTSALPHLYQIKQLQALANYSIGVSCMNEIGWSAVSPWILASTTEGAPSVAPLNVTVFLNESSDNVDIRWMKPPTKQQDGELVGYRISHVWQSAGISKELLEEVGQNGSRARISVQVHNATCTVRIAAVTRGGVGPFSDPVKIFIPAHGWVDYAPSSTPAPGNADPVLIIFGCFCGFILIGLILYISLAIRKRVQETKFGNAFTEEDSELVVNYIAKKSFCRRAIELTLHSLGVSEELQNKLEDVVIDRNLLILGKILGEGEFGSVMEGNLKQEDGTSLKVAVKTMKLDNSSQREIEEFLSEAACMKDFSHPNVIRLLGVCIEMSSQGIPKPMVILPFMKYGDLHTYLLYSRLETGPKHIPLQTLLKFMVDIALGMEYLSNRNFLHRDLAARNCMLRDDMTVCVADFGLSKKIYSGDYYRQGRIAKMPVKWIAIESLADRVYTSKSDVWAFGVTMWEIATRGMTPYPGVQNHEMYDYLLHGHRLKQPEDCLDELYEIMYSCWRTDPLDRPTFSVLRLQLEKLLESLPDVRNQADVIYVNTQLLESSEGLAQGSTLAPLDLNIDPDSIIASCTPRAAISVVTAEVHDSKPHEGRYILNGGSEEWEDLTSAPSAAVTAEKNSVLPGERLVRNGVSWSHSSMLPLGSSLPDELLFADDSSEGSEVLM
The assay is described as follows: Assay 2 MERTK cellular target engagement (NanoBRET TE) assay. Format: cell-based. To be noted: HEK 293 cells, tracer K9, 2 h at 37° C.; read-out: Assay 2 Cell TE MER IC50.

In assay [4] the target is T4, human MERTK cytoplasmic domain (Homo sapiens, UniProt Q12866).
T4 construct: human MERTK cytoplasmic domain (Carna Biosciences 08-108); purchased Carna Biosciences 08-108
Nature of the assay: biochemical. To be noted: 30 uM ATP; read-out: Assay 1a Mer IC50 30 uM ATP. On the procedure:
Assay 1a—MERTK HTRF KinEASE-TK Assay
The enzymatic reaction was carried out for 30 min at room temperature. 10 μL TK Antibody-Cryptate/Streptavidin-XL665 (Cisbio 610SAXLG) was then added for 60 min, including EDTA containing detection buffer (Cisbio 62SDBRDF) to stop the reaction.

Where [5] appears, read: HEK cells, tracer K5, 2 h at 37° C., read-out: Assay 3 Cell TE Axl IC50.

IC50 data for four molecules are collected here from patent US20230203029A1 (priority 2020, published 2023).

Where two headings read alike, the source gives them in different places.

For orientation: IC50 means the concentration needed to halve the response being measured.

For the molecule `O=C(Nc1ccc(Oc2ccnc3cnc(N4CCNCC4)cc23)c(F)c1)c1cccn(-c2ccccc2)c1=O` [Example 31, N-[3-fluoro-4-[(6-piperazin-1-yl-1,7-naphthyridin-4-yl)oxy]phenyl]-2-oxo-1-phenyl-pyridine-3-carboxamide], the IC50 in assay [1] was 12 nM; in assay [2], 34.9 nM; in assay [3], 26.1 nM; in assay [4] it was 6 nM.

In the case of `O=C(Nc1ccc(Oc2ccnc3cnc(N4CCNCC4)cc23)cn1)c1cccn(-c2ccccc2)c1=O` [Example 32, 2-oxo-1-phenyl-N-[5-[(6-piperazin-1-yl-1,7-naphthyridin-4-yl)oxy]-2-pyridyl]pyridine-3-carboxamide], the IC50 in assay [1] worked out at 310 nM; in assay [2] (setting [5]), 127 nM; in assay [3], 80.8 nM; in assay [4] it was 17 nM.

Turning to `O=C(Nc1ccc(Oc2ccnc3cnc(N4CCNCC4)cc23)cc1)c1cccn(-c2ccccc2)c1=O` [Example 12, 2-Oxo-1-phenyl-N-[4-[(6-piperazin-1-yl-1,7-naphthyridin-4-yl)oxy]phenyl]pyridine-3-carboxamide], the IC50 in assay [1] amounted to 54 nM; in assay [2] (setting [5]), 114 nM; in assay [3] it was 80.4 nM; in assay [4] it was 11 nM.

Consider `CN1CCC(NC(=O)c2cc3c(Oc4ccc(NC(=O)c5cccn(-c6ccccc6)c5=O)nc4)ccnc3cn2)CC1` [Example 28.2, N-(1-methyl-4-piperidyl)-4-[[6-[(2-oxo-1-phenyl-pyridine-3-carbonyl)amino]-3-pyridyl]oxy]-1,7-naphthyridine-6-carboxamide], for which the concentration for half-maximal inhibition (IC50) was determined as 60 nM in assay [1], 83.3 nM in assay [2], 95.6 nM in assay [3] and 31 nM in assay [4].
